Results published in US20250136594A1 (Tango Therapeutics, Inc., priority 2022, published 2025).

Key:
[1] = test system: HAP1 MTAP-deleted cell line; test: Viability assay, HAP1 MTAP-deleted cell line; type: cell-based; conditions: Homo sapiens; viability assay, HAP1 MTAP-deleted cell line; read-out: Hap1 MTAP deleted viability IC50
[2] = test system: SDMA in HAP1 MTAP-deleted (MTAP-null) cell line (PRMT5 inhibition); test: SDMA in-cell western assay, HAP1 MTAP-deleted cell line; conditions: for IC50 / IC90: Homo sapiens; for IC50: HAP1, read-out: Hap1 MTAP deleted IC50; for IC90: HAP1, read-out: Hap1 MTAP deleted IC90; for Hap1 MTAP intact/deleted ratio: ratio of SDMA IC50 in HAP1 MTAP-intact to HAP1 MTAP-deleted cell line
[3] = test system: SDMA in HAP1 MTAP-intact cell line (PRMT5 inhibition); test: SDMA in-cell western assay, HAP1 MTAP-intact cell line; conditions: Homo sapiens, HAP1, read-out: Hap1 MTAP intact IC50

Row | IC50 [2] [nM] | IC90 [2] [nM] | IC50 [3] [nM] | Structure (SMILES) | IC50 [1] [nM] | Hap1 MTAP intact/deleted ratio [2]
1 | 5 to 50 | > 125 | > 50 | O=C(Nc1ccn2ccnc2c1)C(=O)N(Cc1ccc(C(F)(F)F)cn1)[C@@H]1CCc2ccccc21 [Compound 15, (R)—N^1-(2,3-dihydro-1H-inden-1-yl)-N^2-(imidazo[1,2-a]pyridin-7-yl)-N^1-((5-(trifluoromethyl)pyridin-2-yl)methyl)oxalamide] | 100 to 1000 | A (IC50 ratio greater than or equal to 30 fold)
2 | < 5 | < 75 | 5 to 50 | Cc1cc(NC(=O)C(=O)N(Cc2ccc(C(F)(F)F)cn2)[C@@H]2CC[C@@H](C)c3ccccc32)cnc1N (stereo in doubt) [Compound 51, N-(6-amino-5-methyl-3-pyridyl)-N′-(4-methyltetralin-1-yl)-N′-[[5-(trifluoromethyl)-2-pyridyl]methyl]oxamide] | < 100 | C (IC50 ratio of less than 15 fold)
3 | < 5 | < 75 | > 50 | Cc1ccccc1CN(CC1CC1)C(=O)C(=O)Nc1cnc(N)c2cn[nH]c12 [Compound 155, N-(4-amino-1H-pyrazolo[4,3-c]pyridin-7-yl)-N′-(cyclopropylmethyl)-N′-(o-tolylmethyl)oxamide] | < 100 | A (IC50 ratio greater than or equal to 30 fold)
4 | < 5 | < 75 | > 50 | CCN(Cc1ccc(C(F)(F)F)cc1C)C(=O)C(=O)Nc1cnc(N)c2cn[nH]c12 [Compound 104, N-(4-Amino-1H-pyrazolo[4,3-c]pyridin-7-yl)-N′-ethyl-N′-[[2-methyl-4-(trifluoromethyl)phenyl]methyl]oxamide] | < 100 | A (IC50 ratio greater than or equal to 30 fold)
5 | 5 to 50 | > 125 | > 50 | CCc1cc(NC(=O)C(=O)N(Cc2ccc(C(F)(F)F)cn2)C(C)C(C)C)cnc1N (centres unmarked) [Compound 42, N-(6-amino-5-ethyl-3-pyridyl)-N′-(1,2-dimethylpropyl)-N′-[[5-(trifluoromethyl)-2-pyridyl]methyl]oxamide] | 100 to 1000 | B (IC50 ratio greater than or equal to 15 fold but lower than 30 fold)
6 | 5 to 50 | > 125 | 5 to 50 | Cc1cc(NC(=O)C(=O)N(Cc2ccc(C(F)(F)F)cn2)[C@@H](C)c2ncccn2)cnc1N [Compound 49, N-(6-amino-5-methyl-3-pyridyl)-N′—[(1S)-1-pyrimidin-2-ylethyl]-N′-[[5-(trifluoromethyl)-2-pyridyl]methyl]oxamide] | 100 to 1000 | C (IC50 ratio of less than 15 fold)
7 | 5 to 50 | > 125 | > 50 | COc1ncc(NC(=O)C(=O)N(Cc2ccc(C(F)(F)F)cn2)C2CCC(C)c3ccccc32)cc1C(N)=O (centres unmarked) [Compound 33, N-(5-carbamoyl-6-methoxy-3-pyridyl)-N′-(4-methyltetralin-1-yl)-N′-[[5-(trifluoromethyl)-2-pyridyl]methyl]oxamide] | < 100 | C (IC50 ratio of less than 15 fold)
8 | 5 to 50 | > 125 | > 50 | CCN(Cc1cccc2ccccc12)C(=O)C(=O)Nc1cnc(N)c2cn[nH]c12 [Compound 176, N-(4-amino-1H-pyrazolo[4,3-c]pyridin-7-yl)-N′-ethyl-N′-(1-naphthylmethyl)oxamide] | 100 to 1000 | A (IC50 ratio greater than or equal to 30 fold)
9 | 5 to 50 | 75 to 125 | > 50 | CCC(c1ccc(C(F)(F)F)cn1)N(C)C(=O)C(=O)Nc1cnc(N)c2cn[nH]c12 (centres unmarked) [Compound 138, N-(4-amino-1H-pyrazolo[4,3-c]pyridin-7-yl)-N′-methyl-N′-[1-[5-(trifluoromethyl)-2-pyridyl]propyl]oxamide] | 100 to 1000 | A (IC50 ratio greater than or equal to 30 fold)
10 | 5 to 50 | > 125 | > 50 | CC(c1ncccn1)N(Cc1ccc(C#N)cn1)C(=O)C(=O)Nc1cnc(N)c2cn[nH]c12 (centres unmarked) [Compound 135, N-(4-Amino-1H-pyrazolo[4,3-c]pyridin-7-yl)-N′-[(5-cyano-2-pyridyl)methyl]-N′-(1-pyrimidin-2-ylethyl)oxamide] | 100 to 1000 | C (IC50 ratio of less than 15 fold)
11 | < 5 | < 75 | 5 to 50 | Cc1cc(F)ccc1CN(Cc1ccccc1)C(=O)C(=O)Nc1cnc(N)c2cn[nH]c12 [Compound 149, N-(4-amino-1H-pyrazolo[4,3-c]pyridin-7-yl)-N′-benzyl-N′-[(4-fluoro-2-methyl-phenyl)methyl]oxamide] | < 100 | B (IC50 ratio greater than or equal to 15 fold but lower than 30 fold)
12 | < 5 | 75 to 125 | > 50 | CC(C)CN(Cc1ccccn1)C(=O)C(=O)Nc1cnc(N)c2cn[nH]c12 [Compound 160, N-(4-amino-1H-pyrazolo[4,3-c]pyridin-7-yl)-N′-isobutyl-N′-(2-pyridylmethyl)oxamide] | 100 to 1000 | A (IC50 ratio greater than or equal to 30 fold)
13 | < 5 | < 75 | > 50 | Cc1cc(F)ccc1CN(CC(C)C)C(=O)C(=O)Nc1cnc(N)c2cn[nH]c12 [Compound 71, N-(4-amino-1H-pyrazolo[4,3-c]pyridin-7-yl)-N′-[(4-fluoro-2-methyl-phenyl)methyl]-N′-isobutyl-oxamide] | < 100 | A (IC50 ratio greater than or equal to 30 fold)
14 | 5 to 50 | > 125 | > 50 | Nc1ncc(NC(=O)C(=O)N(CCC(F)(F)F)Cc2ccccc2)c2[nH]ncc12 [Compound 102, N-(4-amino-1H-pyrazolo[4,3-c]pyridin-7-yl)-N′-benzyl-N′-(3,3,3-trifluoropropyl)oxamide] | 100 to 1000 | A (IC50 ratio greater than or equal to 30 fold)
15 | < 5 | < 75 | > 50 | CC[C@H](C)CN(Cc1ccccn1)C(=O)C(=O)Nc1cnc(N)c2cn[nH]c12 [Compound 128, (S)—N^1-(4-amino-1H-pyrazolo[4,3-c]pyridin-7-yl)-N^2-(2-methylbutyl)-N^2-(pyridin-2-ylmethyl)oxalamide] | < 100 | A (IC50 ratio greater than or equal to 30 fold)
16 | 5 to 50 | 75 to 125 | > 50 | CCc1cc(NC(=O)C(=O)N(Cc2ccc(C(F)(F)F)cn2)C2CCC(C)c3ccccc32)cnc1N (centres unmarked) [Compound 10, N-(6-amino-5-ethyl-3-pyridyl)-N′-(4-methyltetralin-1-yl)-N′-[[5-(trifluoromethyl)-2-pyridyl]methyl]oxamide] | 100 to 1000 | C (IC50 ratio of less than 15 fold)
17 | < 5 | < 75 | < 5 | Nc1ncc(NC(=O)C(=O)N(Cc2ccccc2)Cc2ccccc2C(F)(F)F)c2[nH]ncc12 [Compound 95, N-(4-amino-1H-pyrazolo[4,3-c]pyridin-7-yl)-N′-benzyl-N′-[[2-(trifluoromethyl)phenyl]methyl]oxamide] | < 100 | C (IC50 ratio of less than 15 fold)
18 | < 5 | < 75 | > 50 | Nc1ncc(NC(=O)C(=O)N(Cc2ccccc2)Cc2cccnc2)c2[nH]ncc12 [Compound 29, N-(4-amino-1H-pyrazolo[4,3-c]pyridin-7-yl)-N′-benzyl-N′-(3-pyridylmethyl)oxamide] | < 100 | A (IC50 ratio greater than or equal to 30 fold)
19 | < 5 | < 75 | < 5 | Nc1ncc(NC(=O)C(=O)N(Cc2ccccn2)Cc2cccc(Cl)c2Cl)c2[nH]ncc12 [Compound 91, N-(4-amino-2H-pyrazolo[4,3-c]pyridin-7-yl)-N′—[(2,3-dichlorophenyl)methyl]-N′-(2-pyridylmethyl)oxamide] | < 100 | C (IC50 ratio of less than 15 fold)
20 | < 5 | < 75 | 5 to 50 | Nc1ncc(NC(=O)C(=O)N(Cc2ccc(C(F)(F)F)cn2)[C@@H]2CCC[C@H]2OC(F)F)c2[nH]ncc12 [Compound 43, N1-(4-amino-1H-pyrazolo[4,3-c]pyridin-7-yl)-N^2-((1R,2R)-2-(difluoromethoxy)cyclopentyl)-N^2-((5-(trifluoromethyl)pyridin-2-yl)methyl)oxalamide] | < 100 | C (IC50 ratio of less than 15 fold)
21 | < 5 | < 75 | 5 to 50 | Nc1ncc(NC(=O)C(=O)N(Cc2ccccc2)C2CCOc3ccccc32)c2[nH]ncc12 (centres unmarked) [Compound 97, N-(4-Amino-1H-pyrazolo[4,3-c]pyridin-7-yl)-N′-benzyl-N′-chroman-4-yl-oxamide] | < 100 | B (IC50 ratio greater than or equal to 15 fold but lower than 30 fold)
22 | < 5 | < 75 | 5 to 50 | CC(C)N(Cc1ccccc1C(F)(F)F)C(=O)C(=O)Nc1cnc(N)c2cn[nH]c12 [Compound 73, N-(4-amino-1H-pyrazolo[4,3-c]pyridin-7-yl)-N′-isopropyl-N′-[[2-(trifluoromethyl)phenyl]methyl]oxamide] | < 100 | B (IC50 ratio greater than or equal to 15 fold but lower than 30 fold)
